According to paper PMC10675077, “Antimicrobial Properties of New Polyamines Conjugated with Oxygen-Containing Aromatic Functional Groups” (Molecules, 2023):

Assays:
human Jurkat cell line = test: Cytotoxicity, flow cytometry viability assay with propidium iodide; type: cell-based; details: 24 h treatment, average of three experiments
Procedure, shortened: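 Jurkat cells in RPMI 1640 with 5% FCS exposed to a concentration range of compound or PBS for 24 h. Dead cells scored as PI-positive events (3.75 μM PI, 5 min, room temperature) by flow cytometry, 10,000 events per sample. IC50 obtained by curve fitting; triplicates.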

yeast cells = test: Intracellular ATP by luciferase bioluminescence, yeast; type: cell-based, Saccharomyces cerevisiae; details: 50-fold the MIC, overnight treatment
Description: The procedure described by Lehtinen et al. was followed, with the modifications indicated herein. In the case of bacteria, 1.5 OD600 units were incubated overnight in 1 mL of final volume with 5-fold MIC concentrations. Then, the cells were collected, washed 3 times in 20 mM phosphate buffer pH 7.4, and lysed in 200 μL of LS1 (50 mM of glucose, 25 mM of Tris-HCl pH 8.0, and 10 mM of EDTA pH 8.0) containing 5 mg/mL of lysozyme and the same volume of glass beads (425–600 μm), by stirring 10 times for 15 s each. Then, the solution was centrifuged at 14,800× g for 15 min, and the supernatant was used for a luciferase assay. For this purpose, in each well of a microtiter plate, 100 μL of luciferase assay buffer (0.015 M of MgSO4, 0.015 M of KH2PO4 pH 8, 0.004 M of EGTA pH 8, and 2 mM of DTT) was added together to a 50 μL of 0.3 mg/mL luciferin solution in 0.01% (w/v) Triton X-100 and 50 μL of the cell extract. Finally, 15 μL of a 67 μg/mL aqueous solution of luciferase was added. Light emission was immediately detected using a Luminoskan Ascent instrument (Thermo Scientific, Waltham, MA, USA) for 1 s per well. Glass beads, lysozyme, luciferin, and luciferase were purchased from Sigma-Aldrich.
[…] Then, cells were collected and washed as above and resuspended in 500 μL of LS2 (140 mM of NaCl, 1.5 mM of MgCl2, 10 mM of Tris-HCl pH 8.0, and 0.5% (v/v) NP40). Cells were lysed in the presence of 1 volume of glass beads as described above. The next steps were carried out as in the case of bacterial samples.
Experiments were carried out at least in triplicate in all cases, and control drugs and SDS (0.1% (w/v) of the final concentration) were also included.

S. aureus = test: Checkerboard titration synergy, S. aureus; type: cell-based, Staphylococcus aureus; details: synergistic when FICI ≤0.5
Description: The combined antimicrobial activity of the test compounds with the antibacterial or antifungal control agents was performed under the same conditions used for the MIC determination and following the procedures described by Carton Herrán, Reis de Sá et al. and Zharkova et al.. For each experiment, 16 samples (4 rows × 4 columns) in a total volume of 0.5 mL were prepared in tubes using an array of combinations between the MIC value and 0 μg/mL of the compound to be tested in each row, and between the MIC value and 0 μg/mL of the reference drug in each column. In this way, a variety of mixtures with different concentrations of them alone or in combination was obtained. Briefly, 0.5 mL of a microorganism culture was added to each one of the samples, and after incubation for 24 h with shaking at the appropriate temperature (37 °C or 30 °C), the tubs were visually inspected, and the OD600 was measured. From this information, the fractional inhibitory concentration index (FICI) was calculated according to the formula FIC index = ([A]/[CMI A]) + ([B]/[CMI B]), where [A] and [B] are respective concentrations of tested polyamine and reference drug in their combination effectively inhibiting the growth of bacteria or yeast, and [MIC A] and [MIC B] are the individual MICs of the tested polyamine and reference drug when they are used alone. An interaction is considered synergistic when the FICI value is ≤0.5 [41, 42].
To confirm the data obtained in the checkerboard assay, 30 μL of a ten-fold dilution of the tubes containing concentrations of half of the MIC of each one of the compounds alone (polyamine to be tested and reference drug) and one fourth of the MIC of each one in combination were also spread in LB or SC-ura plates (according to the microorganism considered in each case) and incubated at 37 °C or 30 °C. The visualisation of these plates was performed after 24 or 48 h, respectively. All these experiments were carried out in triplicate.

Compound	IC50, cytotoxicity on the human Jurkat cell line (human Jurkat cell line) [µg/mL]	Intracellular ATP level relative to untreated cells (yeast cells)	Synergy with Ampicillin (S. aureus)	Synergy with Ciprofloxacin (S. aureus)	Synergy with Doxycycline (S. aureus)	Synergy with Gentamicin (S. aureus)
N^1-(benzo[d][1,3]dioxol-5-ylmethyl)-N^3-(2-((2-((3-((benzo[d][1,3]dioxol-5-ylmethyl)amino)propyl)amino)ethyl)(2-((3-(((2,3-dihydrobenzofuran-6-yl)methyl)amino)propyl)amino)ethyl)amino)ethyl)propane-1,3-diamine [Compound 4a]	76.86	–	–	–	–	–
c1cc2nc(c1)CNCCN(CCNCc1ccc3c(c1)OCO3)CCNC2 [Compound 5a, 2-(3,6,9-triaza-1(2,6)-pyridinacyclodecaphane-6-yl)-N-(benzo[d][1,3]dioxol-5-ylmethyl)ethan-1-amine]	–	50–70%	–	–	–	–
Oc1ccccc1CNCCN1CCNCc2cccc(n2)CNCC1 [Compound 6a]	–	50–70%	no synergy and -	no synergy and -	no synergy and -	no synergy and -
